# According to patent US12281122B1, “PI3K inhibitors” (Cogent Biosciences, Inc., priority 2023, dated 2025):
# Legend:
# [1] = tested on: SKBR3 (PI3Kα-Wild Type) cell line; assay: HTRF phospho-AKT(S473) cell assay in SKBR3 cells; type: cell-based, human; conditions: Homo sapiens, SK-BR-3, 2 hours compound incubation, PDGF-BB stimulated
# Outline: (§1)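 Cells plated overnight (T47D in RPMI/10% FBS/0.2 units/mL insulin; SKBR3 in McCoy's 5A/10% FBS), then given 12-point 1:3 compound series (top 5 μM T47D, 10 μM SKBR3; ≤0.5% DMSO) for 2 h at 37° C. SKBR3 stimulated with 70 ng/ml PDGF-BB for final 15 min. Lysate pAKT(S473) by HTRF; IC50 calculated.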
# [2] = tested on: T47D (PI3Kα-H1047R) cell line; assay: HTRF phospho-AKT(S473) cell assay in T47D cells; type: cell-based, human; conditions: Homo sapiens, 2 hours compound incubation
# Outline: as §1
# [3] = HTRF phospho-AKT(S473), SKBR3 (PI3Kα-Wild Type) cells
# [4] = HTRF phospho-AKT(S473), T47D (PI3Kα-H1047R) cells
# [5] = SKBR3 (PI3Kα-Wild Type) cells, HTRF phospho-AKT(S473)
# [6] = T47D (PI3Kα-H1047R) cells, HTRF phospho-AKT(S473)
smiles,measurement,setting,value
"COc1ncc([C@H]2[C@@H]3CN(c4nc5c([C@@H](C)Nc6ccc(Cl)nc6C(=O)NS(C)(=O)=O)cc(C)cc5c(=O)n4C)C[C@@H]32)cn1 [Compound 483, 6-chloro-3-(((R)-1-(2-((1R,5S,6S)-6-(2-methoxypyrimidin-5-yl)-3-azabicyclo[3.1.0]hexan-3-yl)-3,6-dimethyl-4-oxo-3,4-dihydroquinazolin-8-yl)ethyl)amino)-N-(methylsulfonyl) picolinamide]",IC50,[1]; [3],1000 to 5000 nM
same,IC50,[2]; [4],< 250 nM
"Cc1cc([C@@H](C)Nc2ccc(Cl)nc2C(=O)NS(C)(=O)=O)c2nc(N3C[C@@H]4[C@H](C3)[C@H]4c3ccn(C(C)C)n3)n(C)c(=O)c2c1 [Compound 395, 6-chloro-3-(((R)-1-(2-((1R,5S,6R)-6-(1-isopropyl-1H-pyrazol-3-yl)-3-azabicyclo[3.1.0]hexan-3-yl)-3,6-dimethyl-4-oxo-3,4-dihydroquinazolin-8-yl)ethyl)amino)-N-(methylsulfonyl) picolinamide]",IC50,[1]; [5],≥ 5000 nM
same,IC50,[2]; [6],250 to 500 nM
"Cc1cc([C@@H](C)Nc2ccc(Cl)nc2C(=O)NS(C)(=O)=O)c2nc(N3CCC(c4cc(N)n(C)n4)CC3)n(C)c(=O)c2c1 [Compound 338, (R)-3-((1-(2-(4-(5-amino-1-methyl-1H-pyrazol-3-yl)piperidin-1-yl)-3,6-dimethyl-4-oxo-3,4-dihydroquinazolin-8-yl)ethyl)amino)-6-chloro-N-(methylsulfonyl) picolinamide]",IC50,[1]; [5],1000 to 5000 nM
same,IC50,[2]; [6],< 250 nM
"Cc1cc([C@@H](C)Nc2ccc(Cl)nc2C(=O)NS(C)(=O)=O)c2nc(N3Cc4nccnc4C3)n(C)c(=O)c2c1 [Compound 534, (R)-6-chloro-3-((1-(2-(5,7-dihydro-6H-pyrrolo[3,4-b]pyrazin-6-yl)-3,6-dimethyl-4-oxo-3,4-dihydroquinazolin-8-yl)ethyl)amino)-N-(methylsulfonyl) picolinamide]",IC50,[1]; [3],1000 to 5000 nM
same,IC50,[2]; [4],< 250 nM
"Cc1cc([C@@H](C)Nc2ccc(Cl)nc2C(=O)NS(C)(=O)=O)c2nc(N3C[C@@H]4C[C@H]3CN4c3cnc(C)cn3)n(C)c(=O)c2c1 [Compound 591, 6-chloro-3-(((R)-1-(3,6-dimethyl-2-((1S,4S)-5-(5-methylpyrazin-2-yl)-2,5diazabicyclo [2.2.1]heptan-2-yl)-4-oxo-3,4-dihydroquinazolin-8-yl)ethyl)amino)-N-(methylsulfonyl) picolinamide]",IC50,[1]; [3],≥ 5000 nM
same,IC50,[2]; [4],250 to 500 nM
"Cc1cc([C@@H](C)Nc2ccc(Cl)nc2C(=O)NS(C)(=O)=O)c2nc(N3CC[C@@H](Oc4cc[nH]n4)C3)n(C)c(=O)c2c1 [Compound 363, 3-(((R)-1-(2-((R)-3-((1H-pyrazol-3-yl)oxy)pyrrolidin-1-yl)-3,6-dimethyl-4-oxo-3,4-dihydroquinazolin-8-yl)ethyl)amino)-6-chloro-N-(methylsulfonyl) picolinamide]",IC50,[1]; [5],1000 to 5000 nM
same,IC50,[2]; [6],< 250 nM
"Cc1cc([C@@H](C)Nc2ccc(Cl)nc2C(=O)NS(C)(=O)=O)c2nc(-c3ccc(Oc4cnn(C)c4)nc3)n(C)c(=O)c2c1 [Compound 816, (R)-6-chloro-3-((1-(3,6-dimethyl-2-(6-((1-methyl-1H-pyrazol-4-yl)oxy)pyridin-3-yl)-4-oxo-3,4-dihydroquinazolin-8-yl)ethyl)amino)-N-(methylsulfonyl) picolinamide]",IC50,[1]; [3],1000 to 5000 nM
same,IC50,[2]; [4],< 250 nM
"Cc1cc([C@@H](C)Nc2ccc(Cl)nc2C(=O)NS(C)(=O)=O)c2nc(N3CCC(c4nn(C)cc4C)CC3)n(C)c(=O)c2c1 [Compound 248, ®-6-chloro-3-((1-(2-(4-(1,4-dimethyl-1H-pyrazol-3-yl)piperidin-1-yl)-3,6-dimethyl-4-oxo-3,4-dihydroquinazolin-8-yl)ethyl)amino)-N-(methylsulfonyl) picolinamide]",IC50,[1]; [5],1000 to 5000 nM
same,IC50,[2]; [6],< 250 nM
"Cc1cc([C@@H](C)Nc2ccc(Cl)nc2C(=O)NS(C)(=O)=O)c2nc(N3Cc4ccc(-c5ccnc(C)c5)cc4C3)n(C)c(=O)c2c1 [Compound 709, (R)-6-chloro-3-((1-(3,6-dimethyl-2-(5-(2-methylpyridin-4-yl)isoindolin-2-yl)-4-oxo-3,4-dihydroquinazolin-8-yl)ethyl)amino)-N-(methylsulfonyl) picolinamide]",IC50,[1]; [3],≥ 5000 nM
same,IC50,[2]; [4],250 to 500 nM
"Cc1cc([C@@H](C)Nc2ccc(Cl)nc2C(=O)NS(C)(=O)=O)c2nc(N3CCC[C@@H](c4ncc(Cl)cn4)C3)n(C)c(=O)c2c1 (relative stereo) [Compound 588, 6-chloro-3-(((R)-1-(2-((R*)-3-(5-chloropyrimidin-2-yl)piperidin-1-yl)-3,6-dimethyl-4-oxo-3,4-dihydroquinazolin-8-yl)ethyl)amino)-N-(methylsulfonyl) picolinamide]",IC50,[1]; [3],≥ 5000 nM
same,IC50,[2]; [4],1000 to 5000 nM
"Cc1cc([C@@H](C)Nc2ccc(Cl)nc2C(=O)NS(C)(=O)=O)c2nc([C@H]3[C@@H]4CN(c5cnc(C)cn5)C[C@@H]43)n(C)c(=O)c2c1 [Compound 811, 6-chloro-3-(((R)-1-(3,6-dimethyl-2-((1R,5S,6r)-3-(5-methylpyrazin-2-yl)-3-azabicyclo[3.1.0]hexan-6-yl)-4-oxo-3,4-dihydroquinazolin-8-yl)ethyl)amino)-N-(methylsulfonyl) picolinamide]",IC50,[1]; [3],≥ 5000 nM
same,IC50,[2]; [4],250 to 500 nM
"Cc1cc([C@@H](C)Nc2ccc(Cl)nc2C(=O)NS(C)(=O)=O)c2nc(N3CCC4(CCN(c5ccn(C)n5)C4)C3)n(C)c(=O)c2c1 (stereo partly drawn) [Compound 371, 6-chloro-3-(((1R)-1-(3,6-dimethyl-2-(7-(1-methyl-1H-pyrazol-3-yl)-2,7-diazaspiro[4.4]nonan-2-yl)-4-oxo-3,4-dihydroquinazolin-8-yl)ethyl)amino)-N-(methylsulfonyl) picolinamide]",IC50,[1]; [5],1000 to 5000 nM
same,IC50,[2]; [6],< 250 nM
"Cc1cc([C@@H](C)Nc2ccc(Cl)nc2C(=O)NS(C)(=O)=O)c2nc(N3CCC(C)(c4nn(C)cc4F)CC3)n(C)c(=O)c2c1 [Compound 406, (R)-6-chloro-3-((1-(2-(4-(4-fluoro-1-methyl-1H-pyrazol-3-yl)-4-methylpiperidin-1-yl)-3,6-dimethyl-4-oxo-3,4-dihydroquinazolin-8-yl)ethyl)amino)-N-(methylsulfonyl) picolinamide]",IC50,[1]; [5],≥ 5000 nM
same,IC50,[2]; [6],250 to 500 nM
"Cc1cc([C@@H](C)Nc2ccc(Cl)nc2C(=O)NS(C)(=O)=O)c2nc(N3Cc4cn([C@@H](C)C(F)(F)F)nc4C3)n(C)c(=O)c2c1 (relative stereo) [Compound 222, 6-chloro-3-(((R)-1-(3,6-dimethyl-4-oxo-2-(2-((R*)-1,1,1-trifluoropropan-2-yl)-2,6-dihydropyrrolo[3,4-c]pyrazol-5(4H)-yl)-3,4-dihydroquinazolin-8-yl)ethyl)amino)-N-(methylsulfonyl) picolinamide]",IC50,[1]; [5],1000 to 5000 nM
same,IC50,[2]; [6],< 250 nM
"Cc1cc([C@@H](C)Nc2ccc(Cl)nc2C(=O)NS(C)(=O)=O)c2nc(N3C[C@@H]4[C@H](C3)[C@H]4c3nnc(C)o3)n(C)c(=O)c2c1 [Compound 654, 6-chloro-3-(((R)-1-(3,6-dimethyl-2-((1R,5S,6R)-6-(5-methyl-1,3,4-oxadiazol-2-yl)-3-azabicyclo[3.1.0]hexan-3-yl)-4-oxo-3,4-dihydroquinazolin-8-yl)ethyl)amino)-N-(methylsulfonyl) picolinamide]",IC50,[1]; [3],1000 to 5000 nM
same,IC50,[2]; [4],< 250 nM
"Cc1cc([C@@H](C)Nc2ccc(Cl)nc2C(=O)NS(C)(=O)=O)c2nc(N3CCO[C@@H](c4cnn(C)c4)C3)n(C)c(=O)c2c1 (relative stereo) [Compound 314, 6-chloro-3-(((R)-1-(3,6-dimethyl-2-((R*)-2-(1-methyl-1H-pyrazol-4-yl)morpholino)-4-oxo-3,4-dihydroquinazolin-8-yl)ethyl)amino)-N-(methylsulfonyl) picolinamide]",IC50,[1]; [5],≥ 5000 nM
same,IC50,[2]; [6],< 250 nM
"Cc1cc([C@@H](C)Nc2ccc(Cl)nc2C(=O)NS(C)(=O)=O)c2nc(N3CCC(c4ncc(C#N)cc4C)CC3)n(C)c(=O)c2c1 [Compound 266, (R)-6-chloro-3-((1-(2-(4-(5-cyano-3-methylpyridin-2-yl)piperidin-1-yl)-3,6-dimethyl-4-oxo-3,4-dihydroquinazolin-8-yl)ethyl)amino)-N-(methylsulfonyl) picolinamide]",IC50,[1]; [5],1000 to 5000 nM
same,IC50,[2]; [6],< 250 nM
"[2H]C([2H])([2H])n1cc(-c2ccc(-c3nc4c([C@@H](C)Nc5ccc(Cl)nc5C(=O)NS(C)(=O)=O)cc(C)cc4c(=O)n3C)cn2)cn1 [Compound 855, (R)-6-chloro-3-((1-(3,6-dimethyl-2-(6-(1-(methyl-d3)-1H-pyrazol-4-yl)pyridin-3-yl)-4-oxo-3,4-dihydroquinazolin-8-yl)ethyl)amino)-N-(methylsulfonyl) picolinamide]",IC50,"[1]; SKBR3 (PI3Kα-Wild Type) cell line, phospho-AKT(S473) HTRF",1000 to 5000 nM
same,IC50,"[2]; T47D (PI3Kα-H1047R) cell line, phospho-AKT(S473) HTRF",< 250 nM
"Cc1cc([C@@H](C)Nc2ccc(Cl)nc2C(=O)NS(C)(=O)=O)c2nc(-c3ccccc3)n(C)c(=O)c2c1 [Compound 813, (R)-6-chloro-3-((1-(3,6-dimethyl-4-oxo-2-phenyl-3,4-dihydroquinazolin-8-yl)ethyl)amino)-N-(methylsulfonyl) picolinamide]",IC50,[1]; [3],≥ 5000 nM
same,IC50,[2]; [4],250 to 500 nM
